In the CombiSolv-Exp solvation set (Vermeire and Green 2021):

Experiment: solvent given as SMILES

CCCCCC
Settings	solvation free energy, 298 K [kcal/mol]
in BrC(Br)C(Br)Br	-2.72
in Brc1cccc2ccccc12	-3.07
in Brc1ccccc1	-3.65
in C1=Cc2ccccc2C1	-3.49
in C1CCC(C2CCCCC2)CC1	-3.73
in C1CCCCC1	-4.06
in C1CCOC1	-3.9
in C1COCCO1	-3.22
in C=CCCCC	-4.02
in C=CCCCCCC	-3.93
in C=CCCCCCCCC	-3.92
in C=CCCCCCCCCCCCCCC	-3.59
in CC1CCS(=O)(=O)C1	-2.13
in CC1COC(=O)O1	-2.04
in CC#N	-2.63
in CC(=O)CC(C)C	-3.59
in CC(=O)N(C)C	-2.76
in CC(=O)O	-2.89
in CC(=O)OCc1ccccc1	-3.02
in CC(=O)c1ccccc1	-3.04
in CC(C)(C)Cl	-4
in CC(C)(C)O	-3.33
in CC(C)=O	-3.26
in CC(C)CCCC(C)CCCC(C)CCCCC(C)CCCC(C)CCCC(C)C	-3.47
in CC(C)CCO	-3.31
in CC(C)CCl	-3.94
in CC(C)CO	-3.36
in CC(C)O	-3.21
in CC(C)OC(C)C	-3.98
in CC(O)CO	-1.94
in CCBr	-4.08
in CCC#N	-3.13
in CCC(C)(C)C	-4.04
in CCC(C)(C)OC	-3.92
in CCC(C)=O	-3.44
in CCC(C)Cl	-3.98
in CCCC#N	-3.07
in CCCC(=O)OCC	-3.64
in CCCC(C)=O	-3.52
in CCCCC	-4.11
in CCCCC#N	-3.27
in CCCCC(CC)COC(=O)CCCCC(=O)OCC(CC)CCCC	-3.33
in CCCCC(CC)COC(=O)c1ccccc1C(=O)OCC(CC)CCCC	-3.13
in CCCCCC#N	-3.28
in CCCCCC(C)=O	-3.54
in CCCCCCC	-3.97
in CCCCCCCC	-3.92
in CCCCCCCCC	-3.86
in CCCCCCCCC=CCCCCCCCC(=O)OCC(COC(=O)CCCCCCCC=CCCCCCCCC)OC(=O)CCCCCCCC=CCCCCCCCC	-3.45
in CCCCCCCCCC	-3.83
in CCCCCCCCCCCC	-3.73
in CCCCCCCCCCCCCC	-3.6
in CCCCCCCCCCCCCCCC	-3.64
in CCCCCCCCCCCCO	-3.31
in CCCCCCCCCOC(=O)c1ccccc1C(=O)OCCCCCCCCC	-3.23
in CCCCCCCCN(CCCCCCCC)CCCCCCCC	-3.49
in CCCCCCCCO	-3.36
in CCCCCCCO	-3.33
in CCCCCCO	-3.39
in CCCCCCOC(C)=O	-3.61
in CCCCCN(CCCCC)CCCCC	-3.67
in CCCCCO	-3.33
in CCCCCl	-3.91
in CCCCN(C=O)CCCC	-3.25
in CCCCN(CCCC)CCCC	-3.6
in CCCCO	-3.32
in CCCCOC(=O)c1ccccc1C(=O)OCCCC	-3.24
in CCCCOC(C)=O	-3.59
in CCCCOCCCC	-3.87
in CCCO	-3.16
in CCN1CCCC1=O	-2.88
in CCN(CC)C(C)=O	-3.11
in CCN(CC)CC	-4.01
in CCNC(C)=O	-2.92
in CCNC=O	-2.69
in CCO	-3.1
in CCOC(=O)c1ccccc1C(=O)OCC	-2.73
in CCOC(C)(C)C	-3.93
in CCOC(C)=O	-3.46
in CCOCC	-3.99
in CCOCCO	-2.96
in CCOCCOCCOCC	-3.42
in CCOc1ccccc1	-3.49
in CN1CCCC1=O	-2.65
in CN1CCCCC1=O	-2.78
in CN1CCN(C)C1=O	-2.51
in CN(C)C=O	-2.62
in CN(C)P(=O)(N(C)C)N(C)C	-2.98
in CNC(C)=O	-2.74
in CNC=O	-2.36
in CO	-2.82
in COC(C)(C)C	-4.01
in COC(C)=O	-3.3
in COCCO	-2.7
in COCCOCCOCCOCCOC	-2.82
in COc1ccccc1	-3.41
in CS(C)=O	-1.83
in Cc1ccc(C)cc1	-3.87
in Cc1cccc2ccccc12	-3.36
in Cc1cccc(C)c1	-3.85
in Cc1cccc(O)c1	-2.91
in Cc1ccccc1	-3.87
in Cc1ccccn1	-3.5
in ClC(Cl)(Cl)Cl	-4.08
in ClC(Cl)C(Cl)Cl	-3.35
in ClC(Cl)Cl	-3.94
in ClCCCl	-3.45
in ClCCl	-3.75
in Clc1cccc2ccccc12	-3.23
in Clc1ccccc1	-3.85
in FC(F)(F)C(F)(F)C(F)(F)C(F)(F)C(F)(F)C(F)(F)C(F)(F)C(F)(F)F	-2.53
in FC(F)(F)C(F)(F)C(F)(F)C(F)(F)C(F)(F)C(F)(F)F	-2.67
in Fc1ccccc1	-3.88
in ICI	-2.2
in N#CCCCC#N	-1.5
in N#CCCCCC#N	-1.86
in N#CCCO	-1.84
in N#CCCOCCC#N	-0.89
in N#CCc1ccccc1	-2.62
in N#Cc1ccccc1	-3.13
in NC=O	-0.53
in NCCN	-1.85
in NCCO	-0.77
in NCc1ccccc1	-2.92
in Nc1ccccc1	-2.36
in O=C1CCCCC1	-3.37
in O=C1CCCO1	-2.22
in O=C(O)C(Cl)Cl	-2.74
in O=CN1CCOCC1	-1.98
in O=Cc1ccco1	-2.37
in O=S=O	-3.18
in OC1CCCCC1	-3.1
in OCC1CCCO1	-2.62
in OCCCCCO	-2.03
in OCCCCO	-1.88
in OCCCO	-1.54
in OCCCl	-2.22
in OCCOCCO	-1.43
in OCCOCCOCCO	-1.54
in OCCOCCOCCOCCO	-1.65
in OCCS	-1.9
in OCCc1ccccc1	-2.75
in OCc1ccccc1	-2.66
in OCc1ccco1	-2.27
in S=C=S	-4.03
in c1ccc2c(c1)CCCC2	-3.65
in c1ccc2ncccc2c1	-3.1
in c1ccc(C2CCCCC2)cc1	-3.62
in c1ccccc1	-3.84
in c1ccncc1	-3.27
